# US8580534B2, “Method for incorporation of two oxygen atoms into digested peptides using peptidases” (The University of North Dakota, priority 2006, dated 2013)
# Key:
# [1] = pH dependency of the carboxyl oxygen exchange reaction (18O incorporation into Ac-Lys-OH); type: biochemical; conditions: 10 mM Ac-Lys-OH, 1 μM enzyme, 25° C., 95% H2^18O, pH 4.0-9.0 examined
# Protocol: The initial rate of carboxyl oxygen exchange reaction catalyzed by Lys-C and trypsin was determined by monitoring the rate of ^18O atom incorporation into the carboxyl terminus of Ac-Lys-OH. For the pH studies, a 10 mM solution of Ac-Lys-OH in aqueous buffers at different pHs was incubated with 1 μM Lys-C or trypsin at 25° C. in 95% H2^18O buffered at various pHs. The buffer solutions used were 50 mM citrate at pH 4.0, 5.0 and 6.0 (pH adjusted by addition of NaOH), 50 mM phosphate at pH 7.0 and 8.0 (pH adjusted by addition of NaOH) and 50 mM Tris at pH 9.0 (pH adjusted by addition of HCl). The duration of the reaction was 5 minutes for Lys-C and 20 minutes for trypsin. […] The single ^18O atom incorporated reaction product, Ac-Lys-^18OH, in the reconstituted reaction solution was then quantified by stable isotope dilution tandem mass spectrometry, as described below. […]
# (§1) An Agilent 1100 HPLC system (Palo Alto, Calif.) coupled to an API 3000 triple quadrupole mass spectrometer equipped with a TurbolonSpray™ ion source (Applied Biosystems-MDS-Sciex, Foster City, Calif.) was used to quantify Ac-Lys-^18OH. […]
# (§2) Amounts of Ac-Lys-^18OH in the reaction mixture were determined from the chromatographic peak area ratios of the analyte over the internal standard, assuming identical ionization efficiencies and identical yields of fragment ions for Ac-Lys-^18OH and [^13C2]Ac-Lys-OH. […]
# [2] = amidase activity (hydrolysis of Ac-Lys-NH2 in H2^18O); type: biochemical; conditions: 10 mM Ac-Lys-NH2, 25° C., 95% H2^18O, within the pH range examined
# Protocol: The amidase activity of Lys-C and trypsin was measured by monitoring the initial rate of hydrolysis of Ac-Lys-NH2 in H2^18O. Ac-Lys-NH2 (10 mM) was incubated with 0.2 uM Lys-C or 1 uM trypsin at 25° C. in 95% H2^18O at various pHs. The buffer solutions used were the same as described above for the carboxyl oxygen exchange reactions. The duration of the reaction was 5 min for Lys-C and 20 min for trypsin. The single ^18O atom incorporated reaction product, Ac-Lys-^18OH, was quantified after addition of a [^13C2]Ac-Lys-OH internal standard (0.75 μg) by stable isotope dilution tandem mass spectrometry, as described below. All reactions were carried out in triplicate.
# as §1
# The ion spray voltage and the ion source probe temperature were set at 5 kV and 400° C., respectively. […] The precursor and fragment ions monitored were m/z 191 (Ac-Lys-^18OH+H) and 149 (H-Lys-^18OH+H) for Ac-Lys-^18OH and m/z 191 ([^13C2]Ac-Lys-OH+H) and 147 (H-Lys-^16OH+H) for [^13C2]Ac-Lys-OH, respectively. […]
# [3] = steady-state kinetic parameters for the carboxyl oxygen exchange reaction; type: biochemical
# Protocol: The steady-state kinetic parameters for the carboxyl oxygen exchange reaction by Lys-C and trypsin were obtained at two different pHs (pH 9.0 and 5.0 for Lys-C and pH 8.0 and 6.0 for trypsin). Ac-Lys-OH (0.0625-10 mM) was incubated with 1 uM Lys-C or trypsin at 30° C. in 95% H2^1 80 buffered at various pHs (described above). The total volume of the reaction was 20 μL. The duration of the reaction was 10 min for Lys-C and 20 min for trypsin. The single ^18O atom incorporated reaction product, Ac-Lys-180H, was quantified after addition of a [^13C2]Ac-Lys-OH internal standard (0.75 μg) by stable isotope dilution tandem mass spectrometry, as described below. All reactions were carried out in triplicate.
# Km and Vmax values were calculated by fitting the Michaelis-Menten equation to the experimental data using SigmaPlot 9.01 (Systat Software, Richmond, Calif.). Kcat values were calculated by dividing the obtained Vmax values by the total enzyme amount added to the system.
# An Agilent 1100 HPLC system (Palo Alto, Calif.) coupled to an API 3000 triple quadrupole mass spectrometer equipped with a TurbolonSpray™ ion source (Applied Biosystems-MDS-Sciex, Foster City, Calif.) was used to quantify Ac-Lys-^18OH. The reconstituted reaction mixtures were injected (typically 5 μL) onto a reversed-phase C18 column (2.1×150 mm, 5 μm, 300 Å, Vydac) equilibrated with 5% acetonitrile/0.1% HFBA (v/v) in water and then eluted with the same solvent at a flow rate of 200 μL/min. A switching valve (Valco Instrument, Houston, Tex.) was placed between the HPLC system and the mass spectrometer to divert non-volatile salt fractions from the mass spectrometer at the beginning of the run. The switching valve was switched in-line with the mass spectrometer at 3 minutes after the injection. The elution time of Ac-Lys-^18OH was 3.8 minutes.
# The ion spray voltage and the ion source probe temperature were set at 5 kV and 400° C., respectively. Nitrogen was used both as a nebulizer and as an auxiliary gas, at flow rates of 3 and 8 L/min, respectively. A multiple reaction monitoring mode was used for monitoring Ac-Lys-^18OH and [^13C2]Ac-Lys-OH. The precursor and fragment ions monitored were m/z 191 (Ac-Lys-^18OH+H) and 149 (H-Lys-^18OH+H) for Ac-Lys-^18OH and m/z 191 ([^13C2]Ac-Lys-OH+H) and 147 (H-Lys-^16OH+H) for [^13C2]Ac-Lys-OH, respectively. […]
# as §2, with “[^13C2]Ac-Lys-OH. The experimentally determined amounts of Ac-Lys-^18OH were corrected upward 5%, accounting for 60 incorporation resulting from the H2^18O solvent having a 5% H2^16O content.” for “[^13C2]Ac-Lys-OH.”
# [4] = tested on: apomyoglobin peptide that has a lysine residue at the C-terminus (Lys-peptide); assay: 18O atom incorporation into apomyoglobin Lys-peptides by LC/MS; type: biochemical, Horse
# Protocol: (§3) We semi-quantitatively measured the rate of ^18O atom incorporation into Lys-C and tryptic peptides derived from apomyoglobin. This was done to test whether the increased rate of carboxyl oxygen exchange noted for the reaction of Ac-Lys-OH at acidic pH could be generalized to peptide substrates. Apomyoglobin (34 μg) was digested for 16 hours at 25° C. with either 1 μg of Lys-C or trypsin in 100 mM ammonium bicarbonate in H2^16O solvent. The digestion was stopped by adding formic acid to a final concentration of 1% and by boiling the reaction mixture for 2 minutes. The resulting Lys-C and tryptic peptides were lyophilized and used in the following experiments.
# (§4) The rate of the carboxyl oxygen exchange reaction into the Lys-C and tryptic peptides by Lys-C and trypsin, respectively, were semi-quantitatively measured by looking at the rate of ^18O atom incorporation into the carboxyl termini of the peptides by LC/MS (described below). The Lys-C and tryptic digests (both 1.5 μg) were incubated with Lys-C and trypsin (both 0.03 μg), respectively, in H2^18O at 30° C. buffered (see above) at pH 5.0 or 9.0 for Lys-C and pH 6.0 or 8.0 for trypsin for various reaction times (1 minute-60 minutes). The total reaction volume was 50 μL. Aliquots (5 μL) of the reaction mixtures were taken after 1, 5, 10, and 60 minutes. The reactions were stopped by mixing with 40 μL of 10% formic acid and by heating at 95° C. for 2 minutes. After the heat treatment, the solvents were evaporated in the speed-vac concentrator and the samples were stored at −20° C. until use.
# The stored ^18O labeled peptide mixtures were reconstituted in 20 μL of aqueous 0.1% trifluoroacetic acid (TFA), desalted by a C18 ZipTip as per the manufacturer's instructions (Millipore, Bedford, Mass.), and subjected to LC/MS analysis using an UltiMate nano HPLC system (Dionex, San Francisco, Calif.) interfaced to a QStar quadrupole/time of flight mass spectrometer (Applied Biosystems-MDS Sciex, Foster City, Calif.), as described previously. Briefly, the peptide mixture (5 μl) was injected directly into a reverse-phase analytical column (0.075×60 mm, New Objective Inc., Woburn, Mass.) packed with Jupiter C18 media (Phenomenex, Torrance, Calif.), washed with 2% acetonitrile/0.1% formic acid (v/v) in water for 15 minutes at flow rate of 2 μL/min. The peptides were then eluted with a 40 minute linear gradient of 2% acetonitrile/0.1% formic acid (v/v) in water to 40% acetonitrile/0.1% formic acid (v/v) in water at a flow rate of 200 nL/min. The column effluent was directed on-line to a nano-electrospray ion source. The total ion current was obtained in the mass range of m/z 400-1600 in the positive ion mode. The electrospray and orifice voltages were 2050V and 65V, respectively.
# [5] = tested on: peptide that has an arginine residue at the C-terminus (Arg-peptide); assay: 18O atom incorporation into apomyoglobin Arg-peptides by LC/MS; type: biochemical, Horse; conditions: for time to complete incorporation of two ^18O atoms: H2^18O
# Protocol: as §3, §4
# The stored ^18O labeled peptide mixtures were reconstituted in 20 μL of aqueous 0.1% trifluoroacetic acid (TFA), desalted by a C18 ZipTip as per the manufacturer's instructions (Millipore, Bedford, Mass.), and subjected to LC/MS analysis using an UltiMate nano HPLC system (Dionex, San Francisco, Calif.) interfaced to a QStar quadrupole/time of flight mass spectrometer (Applied Biosystems-MDS Sciex, Foster City, Calif.), as described previously. […]
substance,measurement,setting,value
trypsin,optimum pH of the carboxyl oxygen exchange reaction,[1],6.0 pH
same,most favorable pH for the amidase activity,[2],9 pH
same,"kcat/Km of carboxyl oxygen exchange, fold lower than reported kcat/Km for amide hydrolysis",[3]; pH 6.0 versus N-benzoyl-L-lysine amide hydrolysis at pH 8.0,5.1 fold
same,"Km, fold smaller at acidic than at alkaline pH",[3]; pH 6.0 versus pH 8.0,about 3 fold
same,"kcat, fold higher at acidic than at alkaline pH",[3]; pH 6.0 versus pH 8.0,about 5 fold
same,rate of the carboxyl oxygen exchange,[3]; pH 9.0,too low
same,time to complete incorporation of two ^18O atoms,"[4]; pH 6.0, 30° C., H2^18O",≤ 10 min
same,dominant result after 1 minute of incubation,[4]; pH 6.0 and 8.0,incorporation of only one ^18O atom
same,dominant result of ^18O incorporation,"[4]; pH 8.0, 30° C., H2^18O",incorporation of only one ^18O atom
same,time to complete incorporation of two ^18O atoms,"[4]; pH 8.0, 30° C., H2^18O",> 60 min
same,dominant peak after 1 minute of incubation,[5]; both pH 6.0 and 8.0,two ^18O atoms
same,time to complete incorporation of two ^18O atoms,"[5]; pH 6.0, 30° C.",≤ 10 min
same,time to complete incorporation of two ^18O atoms,"[5]; pH 8.0, 30° C.",60 min
